Measurements reported in paper PMC6423129, “Activity and structural analysis of GRL-117C: a novel small molecule CCR5 inhibitor active against R5-tropic HIV-1s” (Scientific Reports, 2019).
Structures can show the parent of a compound that is named as a salt.

What was measured:
[1] = system: pTHRO.c/2626; experiment: MAGI assay, T/F HIV-1 clone pTHRO.c/2626; type: cell-based; details: Human immunodeficiency virus 1, MAGI
Excerpt: (§1) We also examined the activity of GRL-compounds against Transmitter/founder (T/F) HIV-1 viruses. T/F viruses are involved in the initial infection. It is considered that T/F viruses virtually always use CCR5 rather than CXCR4 and infect T cells but not macrophages because […] of CD4 is needed to mediate virus entry for the initial transmission[20]–[24]. […] We obtained four HIV-1 T/F infectious clones. We determined the antiviral activity of GRL-117C, GRL-10007C and GRL-10018C on these HIV-1 clones using MAGI assay.
(§2) MAGI-CCR5 cells[18] were maintained in DMEM supplemented with 10% fetal calf serum (FCS: Gemini Bio-Products, West Sacramento, CA), 200 μg/ml G418, 100 μg/ml hygromycin B, and 100 μg/ml zeomycin. The Chinese hamster ovary (CHO) cells expressing CCR5[19] were maintained in Ham’s F-12 medium (GIBCO-BRL, Rockville, MD) supplemented with 10% FCS, 50 U/ml penicillin, and 50 μg/ml streptomycin in the presence of 5 μg/ml blasticidin S hydrochloride. TZM-bl cells were obtained from the NIH AIDS Reagent Program, and were cultured in DMEM with 10% FCS. Peripheral blood mononuclear cells (PBMCs) were isolated from buffy coats of HIV-1 seronegative individuals, and were activated with 10 μg/ml phytohemagglutinin (PHA) prior to use[16]. A laboratory wild-type R5-HIV-1 strain (HIV-1Ba-L)[37] was employed for drug susceptibility assays. AD101 (experimental CCR5 inhibitor) and VVC-resistant HIV clones[7],[8] were provided by Dr. John P. Moore of Cornell University for this study. The clones were propagated with activated PBMCs, and were used for the assays. […] The following reagents (plasmids) for T/F HIV-1 viruses[22],[24] were obtained through the NIH AIDS Reagent Program, Division of AIDS, NIAID, NIH: pCH040.c/2625 (cat# 11740), pCH106.c/2633 (cat# 11743), pTHRO.c/2626 (cat# 11745), and pCH058.c/2960 (cat# 11856), from Dr. John Kappes and Dr. Christina Ochsenbauer.
(§3) Antiviral assays using PHA-PBMCs (p24 assay) were conducted as previously reported[16],[38]. In brief, PHA-PBMCs (1 × 10^6/ml) were exposed to 50 TCID50 of HIV-1Ba-L or drug-resistant HIV-1 infectious clones in the presence or absence of various concentrations of drugs; 10-fold serial dilutions were performed in 96-well microculture plates. The amount of p24 antigens produced by the cells was determined on day 7 in the culture via a commercially available ELISA kit (PerkinElmer). The p24 production level in drug-free control cell cultures was used as the reference. […] Antiviral assays using MAGI-CCR5 cells (MAGI assay) were conducted as previously reported[16],[39]. Single-round virus infection assays using TZM-bl cells infected with R5-HIV-1s (HIV-1YU2, HIV-1KP-5pc, and HIV-1KP-5mvcR)[10] were also conducted as previously described.

[2] = system: pCH0.6.c/2633; experiment: MAGI assay, T/F HIV-1 clone pCH0.6.c/2633; type: cell-based; details: Human immunodeficiency virus 1, MAGI
Excerpt: as §1, §2, §3

[3] = system: CC1/85 cl.7; experiment: Anti-HIV-1 assay, drug-naive clinical strain CC1/85 cl.7; type: cell-based; details: Human immunodeficiency virus 1
Procedure: (§4) MAGI-CCR5 cells[18] were maintained in DMEM supplemented with 10% fetal calf serum (FCS: Gemini Bio-Products, West Sacramento, CA), 200 μg/ml G418, 100 μg/ml hygromycin B, and 100 μg/ml zeomycin. The Chinese hamster ovary (CHO) cells expressing CCR5[19] were maintained in Ham’s F-12 medium (GIBCO-BRL, Rockville, MD) supplemented with 10% FCS, 50 U/ml penicillin, and 50 μg/ml streptomycin in the presence of 5 μg/ml blasticidin S hydrochloride. TZM-bl cells were obtained from the NIH AIDS Reagent Program, and were cultured in DMEM with 10% FCS. Peripheral blood mononuclear cells (PBMCs) were isolated from buffy coats of HIV-1 seronegative individuals, and were activated with 10 μg/ml phytohemagglutinin (PHA) prior to use[16]. A laboratory wild-type R5-HIV-1 strain (HIV-1Ba-L)[37] was employed for drug susceptibility assays. AD101 (experimental CCR5 inhibitor) and VVC-resistant HIV clones[7],[8] were provided by Dr. John P. Moore of Cornell University for this study. The clones were propagated with activated PBMCs, and were used for the assays. A clinical HIV-1 strain, HIV-1KP-5pc, and an MVC-resistant isolate, HIV-1KP-5mvcR, were prepared and used for antiviral assays, as previously described[10],[38]. The following reagents (plasmids) for T/F HIV-1 viruses[22],[24] were obtained through the NIH AIDS Reagent Program, Division of AIDS, NIAID, NIH: pCH040.c/2625 (cat# 11740), pCH106.c/2633 (cat# 11743), pTHRO.c/2626 (cat# 11745), and pCH058.c/2960 (cat# 11856), from Dr. John Kappes and Dr. Christina Ochsenbauer.
as §3

[4] = system: R5-HIV-1BaL; experiment: p24 assay using PBMCs and R5-HIV-1BaL; type: cell-based; details: Human immunodeficiency virus 1, BAL, PBMC, 168 h, Ba-L (PBMCs), day 7
Procedure: as §4, §3

[5] = system: pCH058.c/2960; experiment: MAGI assay, T/F HIV-1 clone pCH058.c/2960; type: cell-based; details: Human immunodeficiency virus 1, MAGI
Excerpt: as §1, §2, §3

[6] = system: R5-HIV-1Ba-L; experiment: MAGI assay using MAGI/CCR5 cells and R5-HIV-1Ba-L; type: cell-based; details: Human immunodeficiency virus 1, BAL, Ba-L (MAGI)
Procedure: as §4, §3

[7] = system: pCH040.c/2625; experiment: MAGI assay, T/F HIV-1 clone pCH040.c/2625; type: cell-based; details: Human immunodeficiency virus 1, MAGI
Excerpt: as §1, §2, §3

[8] = system: CC1/85 cl.6; experiment: Anti-HIV-1 assay, drug-naive clinical strain CC1/85 cl.6; type: cell-based; details: Human immunodeficiency virus 1; CC1/85 cl.6, drug naive R5-HIV-1 clinical strain; read-out: IC50
Procedure: as §4, §3

[9] = system: D1/85.16 cl.23 (VVC resistant); experiment: microbe, parasite or virus in culture; type: cell-based, HIV-1; details: for IC90: Human immunodeficiency virus 1; for IC50: Human immunodeficiency virus 1, D1/85.16 cl.23 (VVC resistant)
Procedure: as §4, §3

[10] = system: CC101.19 cl.7 (AD101 resistant); experiment: microbe, parasite or virus in culture; type: cell-based, HIV-1; details: for IC90: Human immunodeficiency virus 1; for IC50: Human immunodeficiency virus 1, CC101.19 cl.7 (AD101 resistant)
Procedure: as §4, §3

[11] = system: HIV-1YU2; experiment: TZM-bl single-round infection assay, HIV-1YU2; type: cell-based; details: Human immunodeficiency virus 1, YU2, drug-sensitive, mean ± SD
Procedure: as §4, §3

[12] = system: HIV-1KP-5mvcR; experiment: TZM-bl single-round infection assay, MVC-resistant HIV-1KP-5mvcR; type: cell-based
Procedure: as §4, §3

[13] = system: HIV-1KP-5pc; experiment: TZM-bl single-round infection assay, HIV-1KP-5pc; type: cell-based; details: for IC50: KP-5pc, drug-sensitive clinical strain, TZM-bl assay, mean ± SD
Procedure: as §4, §3

[14] = target: T1, CCR5 (Homo sapiens, UniProt P51681); experiment: Inhibition of 125I-MIP-1α binding to CCR5 (CCR5+ CHO cells)
T1 construct: expressed in transfected cells; host or cells: Chinese hamster ovary (CHO) cells expressing CCR5
Procedure: (§5) In order to determine whether GRL derivatives block the binding of CC-chemokines to CCR5, we conducted a CC-chemokine binding inhibition assay using ^125I-labeled CC-chemokines (^125I-RANTES, ^125I-MIP-1α, and ^125I-MIP-1β) and CCR5 expressing cells.
(§6) CCR5^+ CHO cells were incubated with (A) ^125I-MIP-1α, (B) ^125I-MIP-1β, and (C) ^125I-RANTES (200 ng/ml) in the presence or absence of varying concentrations of CCR5 inhibitors. Data are shown as means ± s.d. of three independent experiments.
(§7) The inhibition of the binding of ^125I-labeled CC-chemokines ([^125I] RANTES, [^125I] MIP-1α, or [^125I] MIP-1β) to CCR5 by various CCR5 inhibitors was measured as previously described. Calcium flux inhibition assays were also performed with CCR5 inhibitors, and were carried out with the Fluo-4 Direct^TM calcium reagent (Invitrogen); assays were conducted as previously described with minor modifications. In brief, CHO-CCR5 cells (5 × 10^5 cells) were exposed to Fluo-4 Direct^TM calcium reagent for 60 min at 37 °C in RPMI containing 5% FCS. Cells were then incubated with the test compound for 30 min at varying concentrations. Subsequently, cells were exposed to either MIP-1α, MIP-1β, or RANTES at 200 ng/ml. Relative increases in cytosolic Ca^2+ levels after chemokine exposure were determined with flow cytometry (FACSCalibur, BD Biosciences), and IC50 values of cytosolic Ca^2+ mobilization (Ca^2+ flux) were compared with the Ca^2+ flux level in drug-free control samples.

[15] = target: T1, CCR5; experiment: Inhibition of 125I-MIP-1β binding to CCR5 (CCR5+ CHO cells)
Procedure: as §5, §6, §7

[16] = target: T1, CCR5; experiment: Inhibition of 125I-RANTES binding to CCR5 (CCR5+ CHO cells)
Procedure: as §5, §6, §7

[17] = Human immunodeficiency virus 1, TZM-bl

T1 sequence (P51681 whole entry): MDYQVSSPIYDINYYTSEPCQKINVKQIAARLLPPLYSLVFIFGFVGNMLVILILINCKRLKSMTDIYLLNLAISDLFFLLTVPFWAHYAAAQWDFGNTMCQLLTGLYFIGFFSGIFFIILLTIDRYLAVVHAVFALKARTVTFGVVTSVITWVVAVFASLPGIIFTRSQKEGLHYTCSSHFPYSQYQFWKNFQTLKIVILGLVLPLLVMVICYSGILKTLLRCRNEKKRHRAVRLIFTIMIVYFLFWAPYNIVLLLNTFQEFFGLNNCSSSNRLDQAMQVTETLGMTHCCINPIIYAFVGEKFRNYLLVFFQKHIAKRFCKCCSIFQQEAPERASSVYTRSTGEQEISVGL

Row | Structure (SMILES) | IC50 [1] | IC50 [2] | IC50 [3] | IC90 [3] | IC50 [4] | IC90 [4] | IC50 [5] | IC50 [6] | IC90 [6] | IC50 [7] | IC90 [9] | IC50 [9] | IC90 [10] | IC50 [10] | other results
1 | CCCCN1C(=O)[C@@H]([C@H](O)C2CCCCC2)NC(=O)C12CCN(Cc1ccc(Oc3ccc(C(=O)O)cc3)cc1)CC2 [APL, 4-[4-[(3 R)-1-butyl-3-[(1 R)cyclohexylhydroxymethyl]-2,5-dioxo-1,4,9-triazaspiro [5.5]undec-9 ylmethyl]phenoxy] benzoic acid hydrochloride] | 0.9 ± 0.1 nM | 1.9 ± 0.2 nM | 1.8 nM | 11.3 nM | 2.6 nM | 13.4 nM | 1.7 ± 0.2 nM | 0.2 nM | 4.9 nM | 0.7 ± 0.2 nM | 98.6 nM | 8.6 nM | 200 nM | 16.3 nM | IC50 [8]: 1.5 nM
2 | CCCCOCCOc1ccc(-c2ccc3c(c2)/C=C(/C(=O)Nc2ccc([S@@+]([O-])Cc4cncn4CCC)cc2)CCCN3CC(C)C)cc1 [CVC, cenicriviroc] |  |  |  |  |  |  |  |  |  |  |  |  |  |  | IC50 [11]: 1.1 ± 0.7 nM; IC90 [11]: 6.2 nM; IC50 [12, 17]: 260 ± 352 nM; IC90 [12, 17]: > 300 nM; fold change of IC50 values between HIV-1KP-5pc (wild type) and HIV-1KP-5mvcR ([12]; KP-5mvcR vs KP-5pc / wild type): 63 fold; IC90 [13, 17]: 105 nM; IC50 [13, 17]: 4.1 nM; IC50 [13]: 4.9 ± 2.2 nM
3 | C=CCN(C(=O)OCC1COC2OCCC12)C1CC2CCC(C1)N2CCC(C)(CN(C)S(=O)(=O)c1ccccc1)c1ccccc1 (stereo not shown) [GRL-10018C] | 3.9 ± 1.1 nM | 8.8 ± 4.2 nM | 4.9 nM | 34.9 nM | 18.7 nM | 155 nM | 8 ± 2.3 nM | 2.9 nM | 27.5 nM | 7.2 ± 1.4 nM | 642 nM | 61.3 nM | 553 nM | 52.5 nM | EC50 [14]: 0.3 nM; EC50 [15]: 0.4 nM; activity against MVC-resistant HIV-1 (HIV-1KP-5mvcR) ([12]; in words, data not shown): failed to demonstrate activity; EC50 [16]: 17 nM; fold increases of IC50s compared to wild type (CC1/85 cl.7) ([9]; D1/85.16 cl.23 (VVC resistant) vs CC1/85 cl.7): (×12.5) fold; fold increases of IC50s compared to wild type (CC1/85 cl.7) ([10]; CC101.19 cl.7 (AD101 resistant) vs CC1/85 cl.7): (×11) fold
